According to patent US7071222B2, “Preparation containing a combination of 5-methylisoxazole-4-carboxylic acid-(4-trifluoromethyl)-anilide and N-(4-trifluoromethylphenyl)2-cyano-3-hydroxycrotonic acid amide” (Sanofi-Aventis Deuschland GmbH, priority 1996, dated 2006):

Legend:
[1] = test system: Adjuvant-induced arthritis; experiment: Adjuvant-induced arthritis, modification in accordance with Perper; format: in vivo, rats of a Lewis strain; conditions: Compound 1 10 mg/kg of rat, Compound 2 0 mg/kg; oral once daily day 1-12; determined day 18; vs control group
Description: Adjuvant-induced arthritis, modification in accordance with […] (Proc. Soc. exp. Biol. Med. 137, 506 (1971)) Male rats of a Lewis strain (Moellegard, Denmark) having a body weight of from 160 to 210 g are used as the experimental animals. On the 1st day, the animals are injected subcutaneously, into the tail root, with complete Freund's adjuvant containing a suspension of Mycobacterium butyricum in heavy paraffin oil (Difco; […] in paraffin oil; Merck). Compounds 1 and 2 are suspended in carboxymethyl cellulose (1% in water) and this suspension is administered orally. The compounds are administered once daily from the 1st to the 12th day of the experiment. The paw volume and the arthritis index are determined on the 18th day. The severity of the disorder is determined by measuring the volumes of both hind paws. The measurement is carried out by the water displacement method, using a 2060 plethysmometer (Rhema-Labortechnik, Hofheim, Germany). In addition, the arthritis index is determined on the 18th day after injection. [table] Animals forming a control group are only given the solvent (1% carboxymethyl cellulose in water). 6 animals are used for each dose and in the control group. A reduction in the increase in paw volume and a decrease in the arthritis index, as compared with the untreated control group, are used as the criteria for an effect having been achieved.

[2] = Oral administration of compound 1 or compound 2 on its own (background statement); format: in vivo; conditions: 5 mg or 10 mg per kg, each compound on its own

| Structure (SMILES) | Decrease in arthritis index [1] [%] | Decrease in paw volume [1] [%] | effect of oral administration, compound on its own [2] |
| --- | --- | --- | --- |
| Cc1oncc1C(=O)Nc1ccc(C(F)(F)F)cc1 [Compound 1, 5-methyl-4′-trifluoromethyl-4-isoxazolecarboxanilide] | 58 | 74 | does not have any significant effect |
| C/C(O)=C(\C#N)C(=O)Nc1ccc(C(F)(F)F)cc1 [Compound 2, N-(4-trifluoromethylphenyl)-2-cyano-3-hydroxycrotonamide] | – | – | does not have any significant effect |
